{
  "source": "patent US20260235581A1",
  "about": "“METHOD FOR THE SELECTION OF AN ECOBIOLOGICAL COMPOUND CAPABLE OF INCREASING THE SKIN TOLERANCE THRESHOLD” (NAOS INSTITUTE OF LIFE SCIENCE, priority 2023, published 2026)",
  "key": {"TAFA4": {"tested_on": "TAFA4", "experiment": "TAFA4 synthesis in normal human fibroblast culture supernatant, dot blot", "assay_type": "cell-based", "conditions": "for effect on the synthesis of TAFA4 (modulation of TAFA4 in the NHF supernatant): 72 hours of incubation, versus DMEM medium control set to 100%, valproic acid 0.025% and 0.05%, TGF-β 10 and 100 ng/ml, LPS 1 μg/ml; for doses with statistically significant induction of TAFA4 synthesis: NHF supernatant, 72 hours, Student test p<0.05, two doses tested", "method": "Normal human fibroblasts (NHFs) have been used in this study (Lonza-Switzerland). The cells are seeded at 10,000 cells in 24-well plates in DMEM+1% Penicillin-streptomycin (P/S). After 72 hours of incubation at 37° C., 5% CO2, the supernatants and protein extracts (obtained from the cell layer) are recovered and stored at −80° C. Before assaying the TAFA4 protein, an evaluation of the toxicity of the compounds tested is performed using the MTT test. Only the concentrations which make it possible to obtain a viability greater than 80% are selected to be quantified by ELISA and dot blot. Dot blotting is an immunoenzymatic detection method for quantifying a protein in a sample after it has been deposited on a nitro-cellulose membrane in a well. Specific equipment (Biorad, France) is used with a nitrocellulose membrane. The device is subjected to a vacuum pressure which will make it possible to create the suctioning of the sample (supernatant or protein extract) and therefore, the binding of proteins to the nitrocellulose membrane. The equipment is placed at a height with respect to the vacuum pump, to respect the principle of gravity. The membrane is previously hydrated with 100 μl of TBS buffer (Tris base+NaCl diluted in water adjusted to pH 7.5) per well. This operation is repeated twice in order to optimise the hydration of the membrane for optimal binding of the proteins contained in the samples. The samples to be analysed (supernatants and protein extracts) and the different solutions of TAFA4 recombinant proteins at different concentrations of the TAFA4 standard range (0.78 to 100 ng/ml) are deposited in the plate (volume 100 μl/well used for the protein extracts and 500 μl/well-used for the supernatants) then the suction flow is activated. […] The presence of the TAFA4 protein on the membrane is conveyed by the formation of a grey to black spot depending on the intensity of the reaction and therefore on the quantity of protein. The membrane is read with the Fusion FX device (Vilber Lourmat) coupled with the VisionCapt software (Vilber Lourmat). The quantification of the TAFA4 protein in the samples tested is done with the VisionCapt software which makes it possible to measure the intensity of the various spots. The quantity of samples is then produced using the standard curve of the TAFA4 standard established with the recombinant protein The data have been collected from independent experiments performed in triplicate. Quantitative analyses are expressed in the form of mean±standard deviation. Statistical significance is determined by a Student test. […] The results are expressed as a percentage of TAFA4 expression by standardising the control to 100% (DMEM medium control). […]"}, "KO mice for TAFA4 [1]": {"tested_on": "KO mice for TAFA4", "conditions": "intradural injection; inflammatory pain agonist or partial lesion of the sciatic nerve; cited from earlier work"}, "KO mice for TAFA4 [2]": {"tested_on": "KO mice for TAFA4", "conditions": "UVC irradiation, intradermal injection post-irradiation; cited from earlier work"}, "[3]": {"tested_on": "pain/hypersensitivity felt locally in the skin", "conditions": "mice, injection subcutaneously or at the level of the neurons present in the bone marrow; cited from earlier work"}},
  "data": [
    {"compound": "CCCC(CCC)C(=O)O", "note": "[Valproic acid, reference compound]", "values": [
      {"measurement": "effect on the synthesis of TAFA4 (modulation of TAFA4 in the NHF supernatant)", "setting": "TAFA4", "value": "induce the synthesis of TAFA4 in a dose-dependent manner"},
      {"measurement": "doses with statistically significant induction of TAFA4 synthesis", "setting": "TAFA4", "value": "1 out of 2 doses"}
    ]},
    {"compound": "human TAFA4 protein: TAFA Chemokine Like Family Member 4 protein, a neurokine; injected recombinant protein in literature mouse studies", "values": [
      {"measurement": "effect on increased hypersensitivity to pain of TAFA4 KO mice", "setting": "KO mice for TAFA4 [1]", "value": "compensates for the condition of TAFA4 KO mice"},
      {"measurement": "effect on 35-day post-irradiation inflammation resolution defect", "setting": "KO mice for TAFA4 [2]", "value": "can be compensated"},
      {"measurement": "duration of the reduction of pain/hypersensitivity post-injection", "setting": "[3]", "value": "up to 4 hours"},
      {"measurement": "effect on pain/hypersensitivity felt locally in the skin", "setting": "[3]", "value": "reduces the pain/hypersensitivity felt locally in the skin"}
    ]},
    {"compound": "TGF-β: TGF-β protein, 100-21, PEPROTECH", "values": [
      {"measurement": "effect on the synthesis of TAFA4 (modulation of TAFA4 in the NHF supernatant)", "setting": "TAFA4", "value": "induce the synthesis of TAFA4 in a dose-dependent manner"},
      {"measurement": "doses with statistically significant induction of TAFA4 synthesis", "setting": "TAFA4", "value": "2 out of 2 doses"}
    ]}
  ]
}
